According to US20190015400A1, “Antifungal Compositions” (priority 2017, published 2019):
“Also recorded” adds a separate entry of the source.

Key:
[1] = tested on: C. albicans ATCC 10231 (strain B); test: MIC and checkerboard assay, azoles + compounds 1-5; format: cell-based, Candida albicans
Experimental: (§1) These compounds were serially diluted (two-fold dilutions) horizontally on the plate in 100 μL of RPMI medium. A diluted yeast culture (25 μL of a fungal stock with OD600 of 0.125 in 10 mL of RPMI medium, which achieves a final inoculum size of around 1-5×10^3 CFU/mL) was plated across the plate (100 μL per well), making a final volume of 200 μL total per well.
(§2) The appropriate range of concentrations for each compound was determined based on their corresponding MIC values against each fungal strain. The inoculum size for yeast and filamentous fungi were the same as in the MIC experiments described in section 2.2. The 96-well plates were incubated at 35° C. for 48 h for yeasts and 72 h for the Aspergillus strain before visual inspection for growth. […] The combinational effect of the two tested compounds were considered synergistic (abbreviated SYN) if FICI<0.5, additive (abbreviated ADD) if 0.5<FICI<4, and antagonistic if FICI>4 (TABLES 2-4).

[2] = tested on: C. albicans ATCC 64124 (strain F); test: MIC and checkerboard assay, azoles + compounds 1-5; format: cell-based, Candida albicans; settings: for MIC in combination: MIC of the labelled drug; for fold reduction in MIC (combination vs alone): reduction for the labelled drug
Experimental: as §1, §2

BEAS-2B cells = test: Mammalian cytotoxicity assay, azoles and compound 2; format: cell-based, human
Text: (§3) David K. Orren (University of Kentucky, Lexington, Ky.) and Prof. David J. Feola (University of Kentucky, Lexington, Ky.), respectively.

HEK-293 cells = test: as above; format: cell-based, human
Text: as §3

J774A.1 cells = test: as above
Text: as §3

[3] = tested on: C. albicans ATCC 64124 (strain F) biofilm; test: Biofilm disruption assay (XTT, SMIC99), azoles + compound 2; format: cell-based, Candida albicans
Experimental: In order to investigate the synergistic effect of azoles and our compounds on inhibiting biofilm formation of C. albicans ATCC 64124 (strain F), we performed a biofilm disruption assay in a checkerboard setup and used XTT [2,3-bis(2-methoxy-4-nitro-5-sulfophenyl)-2H-tetrazolium-5-carboxanilide] reduction to examine the metabolic activity of the biofilm. Briefly, C. albicans ATCC 64124 (strain F) was grown overnight in YEPD broth at 35° C. The culture was then diluted to an OD600 of 0.12 (equivalent to 1×10^6 CFU/mL) and 100 μL was placed into each well of a 96-well plate. The cells were incubated at 37° C. for 24 h for growth. The following day, the spent medium containing planktonic cells was aspirated and each wells were carefully washed three times with sterile phosphate buffer saline (PBS). […] The negative control (medium only) and the positive control (biofilm plus medium) wells were also included in the same 96-well plate. The plates were then incubated at 37° C. statically for additional 24 h and then washed with sterile PBS. 100 μL of a XTT (0.5 mg/mL)/menadione (1 μM) solution was added to each well, covered with aluminum foil, and incubated for 2 h at 37° C. Then, 80 μL of the colored supernatant from each well was transferred to a new 96-well plate, and the absorption was read at OD490. The percent metabolic activity of the formed biofilm at various drug concentration combinations was calculated by dividing the metabolic activity of biofilm formed for that well by that of the biofilm formed in the growth control well (in the absence of any drug). For these experiments, the sessile MIC (SMIC99) was determined, which is defined as the drug concentration required to inhibit the metabolic activity of biofilm by 99% compared to the growth control. The assay for each combination was performed in duplicates.

[4] = tested on: C. glabrata ATCC 2001 (strain H); test: MIC and checkerboard assay, azoles + compounds 1-5; format: cell-based, Candida glabrata
Experimental: as §1, §2

[5] = tested on: Aspergillus terreus ATCC MYA-3633 (strain I); test: MIC and checkerboard assay, azoles + compounds 1-5; format: cell-based; settings: in combination with POS
Experimental: as §1, §2

[6] = azole 16 μg/mL + 8 μg/mL compound 2
[7] = azole at any concentration + 32 μg/mL compound 2
[8] = drug alone, up to highest concentration tested (azoles 16 μg/mL, compound 2 64 μg/mL)

Row | Compound | combinational effect (FICI interpretation) ([1]; in combination with KTC) | combinational effect (FICI interpretation) ([1]; in combination with POS) | combinational effect (FICI interpretation) ([1]; in combination with VOR) | combinational effect (FICI interpretation) ([2]; in combination with KTC) | combinational effect (FICI interpretation) ([2]; in combination with POS) | combinational effect (FICI interpretation) ([2]; in combination with VOR) | combinational effect (FICI interpretation) ([4]; in combination with POS) | other results
1 | O=C(CCCN1CCC(O)(c2ccc(Br)cc2)CC1)c1ccc(Cl)cc1 [Compound 3] | partial synergy | partial synergy | partial synergy | partial synergy | synergy; also recorded: synergistic interactions | partial synergy; also recorded: synergistic interactions | – | –
2 | CCC(C)n1ncn(-c2ccc(N3CCN(c4ccc(OCC5COC(Cn6cncn6)(c6ccc(Cl)cc6Cl)O5)cc4)CC3)cc2)c1=O (centres unmarked) [ITC, itraconazole] | – | – | – | – | – | – | – | MIC in combination ([2]; combination compound 2 + ITC): 2 µg/mL; fold reduction in MIC (combination vs alone) ([2]; combination compound 2 + ITC): 16 fold
3 | C[C@@H](c1ncncc1F)[C@](O)(Cn1cncn1)c1ccc(F)cc1F [VOR, voriconazole] | – | – | – | – | – | – | – | cytotoxicity (BEAS-2B cells; [6]): no toxicity; cytotoxicity (BEAS-2B cells; [7]): no toxicity; cytotoxicity (BEAS-2B cells; [8]): No cytotoxic effect; cytotoxicity (HEK-293 cells; [6]): no toxicity; cytotoxicity (HEK-293 cells; [7]): no toxicity; cytotoxicity (HEK-293 cells; [8]): No cytotoxic effect; cytotoxicity (J774A.1 cells; [6]): no toxicity; cytotoxicity (J774A.1 cells; drug alone, any concentration tested (up to 16 μg/mL)): No cytotoxic effect; MIC in combination ([2]; combination compound 5 + VOR): 2 µg/mL; SMIC alone (μg/mL) Azole ([3]; azole alone, sessile cells): >32 µg/mL; SMIC combo (μg/mL) Azole ([3]; azole in combination with compound 2): 0.5 µg/mL
4 | O=C(CCCN1CCC(O)(c2ccc(Br)cc2)CC1)c1ccccc1 [Compound 1] | – | partial synergy | partial synergy | – | synergy; also recorded: synergistic interactions | partial synergy | partial synergy | combinational effect (FICI interpretation) ([4]; in combination with VOR): strong additive effect
5 | COc1ccc(C(=O)CCCN2CCC(O)(c3ccc(Br)cc3)CC2)cc1 [Compound 5] | – | – | Partial synergy | – | synergistic interactions | strong additive effect | partial synergy | combinational effect (FICI interpretation) [5]: synergistic; fold reduction in MIC (combination vs alone) ([2]; combination compound 5 + VOR): 16 fold; MICalone ([2]; drug alone): > 128 µg/mL; FICI ([2]; in combination with POS): 0.13
6 | O=C(CCCN1CCC(O)(c2ccc(Br)cc2)CC1)c1ccc(Br)cc1 [Compound 4] | partial synergy | – | – | partial synergy | synergistic interactions | Partial synergy | synergistic; also recorded: strong synergy | –
